These results are taken from article PMC5515971, “Utility of spherical human liver microtissues for prediction of clinical drug-induced liver injury” (Archives of Toxicology, 2017).

One may read the IC50 as the concentration needed to halve the response being measured. As a reminder, the Cmax is the peak of the concentration-time curve.

Data set [1] has as its system primary human hepatocytes (PHH). Description: Cytotoxicity (cellular ATP, CellTiter-Glo) in 2D plated primary human hepatocytes, 48 h treatment.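 For all read-outs here: 384-well plates, luminescence read-out, normalized to vehicle wells with 1% DMSO.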 In kind it is cell-based. The note with it: for IC50: Hepatocyte, 2D primary human hepatocytes (lot IZT), 48 h treatment, total cellular ATP content, read-out: Geomean IC50. (ATP-based viability assays read luminescence as a measure of living cells.)

For data set [2] the following is noted: cited from earlier work.
The subject of data set [3] is 3D human liver microtissues (hLiMT). Kind of data set: Cytotoxicity (cellular ATP) in 3D human liver microtissues, 5-6 days treatment.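 Note: Hanging-drop spheroids, seven-point dilution series, re-dosed on day 3, CellTiter-Glo 2.0 luminescence, normalized to 0.5 or 1% DMSO vehicle controls on the same plate.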 The class given is cell-based. As to conditions: Homo sapiens; hLiMT, 5/6 days, ATP content; read-out: IC50 SHORT.
Data set [4] in a line: Clinical DILI severity categorization and DILI pattern. The note with it: P = DILI severity categories 1, 2 and 3; N = categories 4 and 5.
The conditions of data set [5]: cited from earlier work; for P/N (DILI positive / DILI negative): P = DILI severity categories 1, 2 and 3, N = categories 4 and 5; for DILI category: clinical, from literature and product labels.
The conditions of data set [6]: ref Chen et al 2016 / Chen et al 2011; cited from earlier work.
Data set [7] has as its system 3D human liver microtissues (hLiMT). Description: Cytotoxicity (cellular ATP, CellTiter-Glo 2.0) in 3D human liver microtissues, 14 day repeat-dose treatment. As to conditions: for IC50: Homo sapiens, Hepatocyte, 336 h, read-out: Geomean IC50 [µM].
Setting [8] is: human Cmax total, used for IC50/Cmax.
The mark [9] stands for this setting: human total plasma Cmax, ref literature values.
Setting [10] is: Table 1, ref Garside et al. (2014).
Setting [11] is: clinical DILI severity category, 1-5.
Where [12] appears, read: table S-5, ref Garside et al. 2014.

Where two headings read alike, the source gives them in different places.

Consider `[H]/N=C(/N)N[C@H]1[C@H](O)[C@@H](O)[C@H](O[C@@H]2O[C@@H](C)[C@](O)(C=O)[C@H]2O[C@@H]2O[C@@H](CO)[C@H](O)[C@@H](O)[C@@H]2NC)[C@@H](N/C(N)=N\[H])[C@@H]1O` [Streptomycin], for which the results for the 50% inhibitory concentration (IC50) in data set [1], in data set [3] and in data set [7] were above 100 µM, 100 µM and above 100 µM, respectively. Moreover, the maximum concentration (Cmax) in data set [2] (setting [8]) and in data set [2] (setting [9]) was 64500 nM in each case. In addition, the “P/N (DILI positive / DILI negative)” value in data set [4] and in data set [5] was “N” throughout. Also, the DILI severity category in data set [5] (setting [10]) is recorded as 5: No DILI (N = 25); in data set [5] (setting [11]), 5. No DILI; in data set [5] (table S-4, ref Garside et al. 2014), 5. Further, the P/N entry in data set [5] (binary DILI classification, table S-4) is on record as “N”. Also, the DILI category in data set [5] (ref Garside et al. 2014) was 5. No DILI. Moreover, the “LTKB DILI classification” value in data set [6] is “no DILI concern”.
`Cc1c(-c2ccccc2)oc2c(C(=O)OCCN3CCCCC3)cccc2c1=O` [Flavoxate]: the IC50 in data set [1] and in data set [7] was above 10 µM in each case. Further, the Cmax in data set [2] (setting [8]) and in data set [2] (setting [9]) was 1790 nM in each case. The “P/N (DILI positive / DILI negative)” value in data set [4] and in data set [5] was “N” in each case. Also, the DILI severity category in data set [5] (setting [10]) was 5: No DILI (N = 25); in data set [5] (setting [11]), 5. No DILI. For the same compound, the DILI category in data set [5] (ref Garside et al. 2014) was 5. No DILI. The “FDA DILI Classification DILI severity score” value in data set [6] is 0. Also, the “LTKB DILI classification” value in data set [6] is on record as “no DILI concern”.
Turning to `CN1[C@@H]2CC[C@H]1C[C@@H](OC(c1ccccc1)c1ccccc1)C2` [Benztropine], the “classification at 50× MOS threshold” value in data set [1] (PHH 48 h) and in data set [7] (hLiMT 14 days) was “false positive” throughout. Moreover, the Cmax is 585 nM in data set [2] (setting [8]) and 590 nM in data set [2] (setting [9]). The “P/N (DILI positive / DILI negative)” value in data set [4] and in data set [5] was “N” throughout. The DILI severity category in data set [5] (setting [10]) is 5: No DILI (N = 25); in data set [5] (setting [11]), 5. No DILI. Besides, the DILI category in data set [5] (ref Garside et al. 2014) is 5. No DILI. The “FDA DILI Classification DILI severity score” value in data set [6] is 0. Also, in data set [6], the “LTKB DILI classification” value was “no DILI concern”.
Turning to `C[N+](C)(C)C[C@H](O)CC(=O)[O-]` [Levocarnitine], the IC50 in data set [1] and in data set [7] was above 10000 µM throughout. In addition, the peak concentration (Cmax) in data set [2] (setting [8]) and in data set [2] (setting [9]) was 85700 nM in each case. Besides, the “P/N (DILI positive / DILI negative)” value in data set [4] and in data set [5] was “N” throughout. The DILI severity category is reported as 5: No DILI (N = 25) in data set [5] (setting [10]), 5. No DILI in data set [5] (setting [11]) and 5. No DILI in data set [5] (setting [12]). In data set [5] (ref Garside et al. 2014), the DILI category is listed as 5. No DILI. Further, the “LTKB DILI classification” value in data set [6] is “no DILI concern”.
Regarding `CC(C)[N+](C)(CCOC(=O)C1c2ccccc2Oc2ccccc21)C(C)C` [Propantheline], the IC50 in data set [1] and in data set [7] was above 50 µM each time. In addition, the Cmax in data set [2] (setting [8]) and in data set [2] (setting [9]) was 440 nM throughout. The “P/N (DILI positive / DILI negative)” value in data set [4] and in data set [5] was “N” throughout. Besides, the values for the DILI severity category in data set [5] (setting [10]) and in data set [5] (setting [11]) were 5: No DILI (N = 25) and 5. No DILI, respectively. Besides, the DILI category in data set [5] (ref Garside et al. 2014) is listed as 5. No DILI. Besides, the “FDA DILI Classification DILI severity score” value in data set [6] was 0. For the same compound, in data set [6], the “LTKB DILI classification” value is “no DILI concern”.
For the compound `CC(C)(C)NCC(O)COc1cccc2c1CC(O)C(O)C2` (stereo not shown) [Nadolol], the IC50 in data set [1] and in data set [7] was above 100 µM throughout. Besides, the Cmax in data set [2] (setting [8]) and in data set [2] (setting [9]) was 810 nM throughout. In addition, the “P/N (DILI positive / DILI negative)” value in data set [4] and in data set [5] was “N” throughout. The DILI severity category in data set [5] (setting [10]) is on record as 4: Enzyme elevations in clinic (N = 16); in data set [5] (setting [11]), 4. Enzyme Elevations in Clinic; in data set [5] (setting [12]), 4. Enzyme Elevations in Clinic. In data set [5] (ref Garside et al. 2014), the DILI category is recorded as 4. Enzyme Elevations in Clinic. For the same compound, in data set [6], the “FDA DILI Classification DILI severity score” value is 3. Further, the “LTKB DILI classification” value in data set [6] is on record as “Ambiguous DILI concern”.
Regarding `CCN(CC)C(=O)/C(C#N)=C/c1cc(O)c(O)c([N+](=O)[O-])c1` [Entacapone], the values for the IC50 in data set [1] and in data set [7] were 100 µM and 152 µM, respectively. Moreover, the Cmax in data set [2] (setting [8]) and in data set [2] (setting [9]) was 3280 nM throughout. The “P/N (DILI positive / DILI negative)” value in data set [4] and in data set [5] was “N” in each case. The DILI severity category was 4: Enzyme elevations in clinic (N = 16) in data set [5] (setting [10]) and 4. Enzyme Elevations in Clinic in data set [5] (setting [11]). Moreover, the DILI category in data set [5] (ref Garside et al. 2014) is on record as 4. Enzyme Elevations in Clinic. Besides, the “FDA DILI Classification DILI severity score” value in data set [6] is 0. Besides, in data set [6], the “LTKB DILI classification” value is given as “less DILI concern”.
As for `CCOC(=O)c1ncn2c1CN(C)C(=O)c1cc(F)ccc1-2` [Flumazenil], the IC50 in data set [1] and in data set [7] was above 250 µM in each case. Further, the Cmax in data set [2] (setting [8]) and in data set [2] (setting [9]) was 1120 nM each time. The “P/N (DILI positive / DILI negative)” value in data set [4] and in data set [5] was “N” each time. Besides, the DILI severity category is 5: No DILI (N = 25) in data set [5] (setting [10]) and 5. No DILI in data set [5] (setting [11]). Besides, in data set [5] (ref Garside et al. 2014), the DILI category is 5. No DILI. In data set [6], the “FDA DILI Classification DILI severity score” value is recorded as 0. The “LTKB DILI classification” value in data set [6] is on record as “no DILI concern”.
As to `CC(C)(C)NC[C@H](O)COc1ccccc1C1CCCC1` [Penbutolol], the half-maximal inhibitory concentration (IC50) is 15.7 µM in data set [1] and around 39 µM in data set [7]. In addition, the “classification at 100 μM IC50 threshold” value in data set [1] (PHH 48 h) and in data set [7] (hLiMT 14 days) was “false positives” each time. Also, the Cmax in data set [2] (setting [8]) and in data set [2] (setting [9]) was 1030 nM each time. The “P/N (DILI positive / DILI negative)” value in data set [4] and in data set [5] was “N” each time. For the same compound, the results for the DILI severity category in data set [5] (setting [10]) and in data set [5] (setting [11]) were 4: Enzyme elevations in clinic (N = 16) and 4. Enzyme Elevations in Clinic, respectively. Moreover, the DILI category in data set [5] (ref Garside et al. 2014) is given as 4. Enzyme Elevations in Clinic. Moreover, the “LTKB DILI classification” value in data set [6] was “no DILI concern”.
With `C[C@@H]1C[C@H]2[C@@H]3CCC4=CC(=O)C=C[C@]4(C)[C@@]3(F)[C@@H](O)C[C@]2(C)[C@@]1(O)C(=O)CO` [Dexamethasone], the 50% inhibitory concentration (IC50) in data set [1] and in data set [7] was above 100 µM in each case. Besides, the Cmax in data set [2] (setting [8]) and in data set [2] (setting [9]) was 220 nM in each case. Besides, the “P/N (DILI positive / DILI negative)” value in data set [4] and in data set [5] was “N” in each case. Also, the DILI severity category in data set [5] (setting [10]) is on record as 4: Enzyme elevations in clinic (N = 16); in data set [5] (setting [11]), 4. Enzyme Elevations in Clinic; in data set [5] (setting [12]) it was 4. Enzyme Elevations in Clinic. Besides, the DILI category in data set [5] (ref Garside et al. 2014) is 4. Enzyme Elevations in Clinic. For the same compound, in data set [6], the “FDA DILI Classification DILI severity score” value is reported as 3. In addition, the “LTKB DILI classification” value in data set [6] is given as “Ambiguous DILI concern”.
